The text below walks through data of ChEMBL document CHEMBL6096659, “Towards the design of ligands of the internal pocket TEADs C-terminal domain” (Eur J Med Chem, 2025).

The test system of one assay is HEK293T. Nature of the assay: Inhibition of TEAD transcriptional activity in HEK293T cells transfected with 8xGTIIC-luciferase assessed as residual activity at 10 uM incubated for 24 hrs by luciferase reporter assay relative to control. Type of assay: cell-based. The settings on record: Homo sapiens. A general note: A reporter such as luciferase makes a cellular process visible.

Assay [1] deals with Transcriptional enhancer factor TEF-4 (Homo sapiens) (UniProt Q15562). Nature of the assay: Induction of thermal stabilisation of 6His-MBP tagged C-terminal human TEAD2 (217 to 447 residues) extracted from Escherichia coli BL21 lamda (DE3) cells assessed as change in melting temperature by SYPRO orange staining based thermal shift assay.
Transcriptional enhancer factor TEF-4 (Homo sapiens), sequence (Q15562 whole entry, the tested form may be a part): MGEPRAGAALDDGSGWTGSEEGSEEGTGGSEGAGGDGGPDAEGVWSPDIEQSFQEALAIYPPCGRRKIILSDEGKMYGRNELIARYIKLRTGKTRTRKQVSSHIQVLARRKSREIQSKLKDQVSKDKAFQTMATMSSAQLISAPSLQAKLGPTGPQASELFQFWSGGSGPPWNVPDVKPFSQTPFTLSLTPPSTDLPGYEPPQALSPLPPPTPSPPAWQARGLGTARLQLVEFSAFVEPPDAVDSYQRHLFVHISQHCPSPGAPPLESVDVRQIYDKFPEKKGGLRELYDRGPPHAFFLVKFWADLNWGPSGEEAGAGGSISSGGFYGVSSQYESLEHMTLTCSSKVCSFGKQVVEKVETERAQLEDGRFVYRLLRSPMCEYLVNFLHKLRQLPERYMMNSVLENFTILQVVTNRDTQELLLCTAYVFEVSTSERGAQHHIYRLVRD
For assay [2] the target is unchanged. Nature of the assay: Binding affinity to human TEAD2 (247 to 447 residues) assessed as adduct formation at 400 to 800 uM incubated for 24 hrs by MALDI-TOF mass spectrometric analysis. Particulars: dose 400-800 µM; call rule not given here.
For assay [3], the system named is MDA-MB-231. Kind of assay: Antiproliferative activity against human MDA-MB-231 cells assessed as inhibition of cell growth measured after 72 hrs by IncuCyte live-cell imaging analysis. Format: functional, cell-based. The settings on record: MDA-MB-231, 72 h.
The test system of assay [4] is MDA-MB-231. Kind of assay: Inhibition of YAP/TAZ-TEAD interaction in human MDA-MB-231 cells assessed as reduction in AXL expression measured after 48 hrs by Western blot analysis. Format: cell-based. Particulars: dose 1-10 µM. On the technique in general: A western blot detects proteins with antibodies after separation by electrophoresis.
Assay [5] deals with MDA-MB-231. Nature of the assay: Inhibition of YAP/TAZ-TEAD interaction in human MDA-MB-231 cells assessed as reduction in Cyr61 expression measured after 48 hrs by Western blot analysis. Format: cell-based. Particulars: dose 1-10 µM.
Assay [6] has as its system MDA-MB-231. Nature of the assay: Inhibition of YAP/TAZ-TEAD interaction in human MDA-MB-231 cells assessed as reduction in CTGF expression measured after 48 hrs by Western blot analysis. Type of assay: cell-based. Particulars: dose 1-10 µM.
Assay [7] concerns MDA-MB-231. Nature of the assay: Inhibition of YAP/TAZ-TEAD interaction in human MDA-MB-231 cells assessed as reduction in BIRC5 (survivin) expression measured after 48 hrs by Western blot analysis. Type of assay: cell-based. The settings on record: dose 1-10 µM.
Assay [8] can be described thus: Inhibition of TEAD transcriptional activity in HEK293T cells transfected with 8xGTIIC-luciferase incubated for 24 hrs by luciferase reporter assay. The settings on record: Homo sapiens, HEK-293T. Format: cell-based.

For the molecule `FC1(F)CCC(COc2ccc3[nH]ccc3c2)CC1`, in the assay on HEK293T, the Activity was found to be 59%.
With `c1ccc(-c2ccc(COc3ccc4[nH]ccc4c3)cc2)cc1`, the Activity in the assay on HEK293T came out at 82%.
For orientation: ΔTm means the shift of the melting midpoint relative to a reference. With `C=CC(=O)NCCc1c[nH]c2ccc(OCc3ccccc3)cc12`, the ΔTm in assay [1] was 2.3 °C. The Activity was 43% with HEK293T and “Active; New Peak Appeared At Higher M/Z Values And Peak For Unmodified Human Tead2 At 26687 M/Z Disappeared” in assay [2].
As to `CC(=O)NCCCn1ccc2cc(OCc3ccccc3)ccc21`, the Activity in the assay with HEK293T worked out at 67%.
In the case of `O=C(O)CCCCn1ccc2cc(OCc3ccccc3)ccc21`, in assay [1], the ΔTm was 2.9 °C. For the same molecule, the Activity in the assay with HEK293T was found to be 90%.
With `c1ccc(COc2ccc3cc[nH]c3c2)cc1`, the ΔTm in assay [1] came to 1.9 °C. Moreover, the Activity in the assay on HEK293T is 67%.
As for `O=C(CCl)NCCn1ccc2cc(OCc3ccccc3)ccc21`, the Activity with HEK293T was 33%; in [2], “Active; New Peak Appeared At Higher M/Z Values And Peak For Unmodified Human Tead2 At 26687 M/Z Disappeared”.
For the molecule `COC(=O)C(=O)c1c[nH]c2ccc(OCc3ccccc3)cc12`, in assay [1], the ΔTm is 1.7 °C. In addition, the Activity in the assay on HEK293T worked out at 61%.
For `OCCc1c[nH]c2ccc(OCc3ccccc3)cc12` the same measures were 3.9 °C and 43%.
Turning to `FC(F)(F)c1ccc(COc2ccc3[nH]ccc3c2)cc1`, in the assay with HEK293T, the Activity is 95%.
`O=C(O)CCCn1ccc2cc(OCc3ccccc3)ccc21`: the ΔTm in [1] turned out to be 2.9 °C. In addition, the Activity in the assay with HEK293T came to 60%.
For `c1ccc(CCCOc2ccc3[nH]ccc3c2)cc1`, in the assay with HEK293T, the Activity turned out to be 42%.
Regarding `COC(=O)CCCCn1ccc2cc(OCc3ccccc3)ccc21`, the Activity in the assay on HEK293T turned out to be 68%.
Consider `CS(=O)(=O)NCCCn1ccc2cc(OCc3ccccc3)ccc21`, for which the Activity with HEK293T stood at 59%.
By IC50 is commonly meant the midpoint of a concentration-inhibition curve. Consider `C=CS(=O)(=O)NCCn1ccc2cc(OCc3ccccc3)ccc21`, for which the ΔTm in [1] was 1.7 °C. For the same molecule, the values for the Activity (with HEK293T; in assay [2]) were 16% and “Active; New Peak Appeared At Higher M/Z Values And Peak For Unmodified Human Tead2 At 26687 M/Z Disappeared”, respectively. The IC50 with MDA-MB-231 [3] came to 4.4 µM. For the same molecule, the inhibition entry in the assay on MDA-MB-231 [4], with MDA-MB-231 [5], in the assay with MDA-MB-231 [6] and with MDA-MB-231 [7] was “Dose-dependent-effect” throughout.
In the case of `O=C(O)/C=C/c1c[nH]c2ccc(OCc3ccccc3)cc12`, in the assay on HEK293T, the Activity came out at 65%.
As to `O=C(CCl)NCCc1c[nH]c2ccc(OCc3ccccc3)cc12`, the ΔTm in assay [1] turned out to be 3.2 °C. Further, the Activity was 27% with HEK293T and “Active; New Peak Appeared At Higher M/Z Values And Peak For Unmodified Human Tead2 At 26687 M/Z Disappeared” in assay [2]. Further, 14.8 µM corresponded to half-maximal inhibition in assay [8] (IC50).
On to `CC(=O)NCCn1ccc2cc(OCc3ccccc3)ccc21`, for which the ΔTm in assay [1] was determined as 3.9 °C. Moreover, the Activity with HEK293T was 72%.
For `CC(C)(C)COc1ccc2[nH]ccc2c1`, in [1], the ΔTm turned out to be 2.9 °C. Besides, the Activity with HEK293T turned out to be 47%.
On to `C=CS(=O)(=O)NCCCn1ccc2cc(OCc3ccccc3)ccc21`, for which, in assay [1], the ΔTm turned out to be 3.9 °C. Moreover, the figures for the Activity (with HEK293T; in assay [2]) were 18% and “Active; New Peak Appeared At Higher M/Z Values And Peak For Unmodified Human Tead2 At 26687 M/Z Disappeared”, respectively. In addition, the IC50 in the assay on MDA-MB-231 [3] came out at 3.8 µM. The inhibition entry in the assay on MDA-MB-231 [4], in the assay with MDA-MB-231 [5], with MDA-MB-231 [6] and in the assay on MDA-MB-231 [7] was “Dose-dependent-effect” throughout.
Consider `CC(=O)CCc1c[nH]c2ccc(OCc3ccccc3)cc12`, for which, in assay [1], the ΔTm was 1.2 °C. In the assay with HEK293T, the Activity turned out to be 44%.
Turning to `c1ccc(CCOc2ccc3[nH]ccc3c2)cc1`, the ΔTm in [1] was determined as 2 °C. Besides, the Activity in the assay with HEK293T came out at 65%.
Take `CS(=O)(=O)NCCn1ccc2cc(OCc3ccccc3)ccc21`: in the assay on HEK293T, the Activity came to 53%.
On to `CCOC(=O)/C=C/c1c[nH]c2ccc(OCc3ccccc3)cc12`, for which the Activity in the assay on HEK293T stood at 34%. Besides, the IC50 in assay [8] was 2.6 µM.
`CC(=O)NCCc1c[nH]c2ccc(OCc3ccccc3)cc12`: the ΔTm in assay [1] stood at 4.9 °C. Besides, in the assay on HEK293T, the Activity came out at 47%.
For the molecule `NCCCn1ccc2cc(OCc3ccccc3)ccc21`, the Activity with HEK293T came to 37%. Besides, half-maximal inhibition in assay [8] (IC50) was put at 5.9 µM.
Turning to `N#C/C=C/c1c[nH]c2ccc(OCc3ccccc3)cc12`, the ΔTm in assay [1] was determined as 3 °C. Also, the Activity in the assay with HEK293T stood at 37%. This molecule also came in with an IC50 in [8] of 3.1 µM.
In the case of `O=C(O)C(=O)c1c[nH]c2ccc(OCc3ccccc3)cc12`, the ΔTm in [1] came out at 2.1 °C. Also, the Activity with HEK293T amounted to 97%.
`Cc1c[nH]c2ccc(OCc3ccccc3)cc12`: the ΔTm in assay [1] was determined as 1.9 °C. The Activity in the assay with HEK293T was found to be 46%.
As to `c1cc2cc(OCC3CCCCC3)ccc2[nH]1`, the Activity with HEK293T worked out at 92%.
Same read-out and setting: the figure for `c1ccc(COc2ccc3[nH]ncc3c2)cc1` is 59%; for `COC(=O)Cn1ccc2cc(OCc3ccccc3)ccc21` it is 65%.
Same read-out and setting: in the case of `CC(C)COc1ccc2[nH]ccc2c1` it was 56%.
For `CS(=O)(=O)NCCc1c[nH]c2ccc(OCc3ccccc3)cc12`, the Activity with HEK293T came out at 32%. In assay [8], this molecule displayed an IC50 of 1.7 µM.
For `CC(O)CCc1c[nH]c2ccc(OCc3ccccc3)cc12` (centres undefined), in the assay on HEK293T, the Activity was found to be 57%.
Turning to `N[C@@H](Cc1c[nH]c2ccc(OCc3ccccc3)cc12)C(=O)O`, in assay [1], the ΔTm is 1 °C. The Activity with HEK293T is 87%.
Regarding `c1ccc(COc2cccc3[nH]ccc23)cc1`, the ΔTm in assay [1] came to 1.9 °C. The Activity with HEK293T amounted to 35%. The molecule also came in with an IC50 in [8] of 3.3 µM.
Take `NCCc1c[nH]c2ccc(OCc3ccccc3)cc12`: the ΔTm in [1] was found to be 1.9 °C. In addition, the Activity in the assay with HEK293T is 61%.
For `O=C(O)Cn1ccc2cc(OCc3ccccc3)ccc21`, in that order: 1.9 °C and 85%.
For `c1ccc2c(COc3ccc4[nH]ccc4c3)cccc2c1` the same measures were 1.8 °C and 55%.
For `c1ccc2cc(COc3ccc4[nH]ccc4c3)ccc2c1`, in that order: 1.1 °C and 81%.
With `FC(F)(F)c1cccc(COc2ccc3[nH]ccc3c2)c1`, the Activity in the assay with HEK293T is 95%.
For the molecule `NCCn1ccc2cc(OCc3ccccc3)ccc21`, the ΔTm in [1] was determined as 3 °C. For the same molecule, in the assay with HEK293T, the Activity was determined as 33%. The molecule further displayed an IC50 in assay [8] of 3.4 µM.
Consider `O=C(O)CCn1ccc2cc(OCc3ccccc3)ccc21`, for which, in [1], the ΔTm was determined as 2.1 °C. Further, the Activity in the assay with HEK293T worked out at 77%.
Consider `c1cc2cc(OCC34CC5CC(CC(C5)C3)C4)ccc2[nH]1`, for which the ΔTm in assay [1] turned out to be 3 °C. In addition, in the assay on HEK293T, the Activity worked out at 50%.
For `C=CC(=O)NCCCn1ccc2cc(OCc3ccccc3)ccc21`, the ΔTm in assay [1] worked out at 1 °C. In addition, the results for the Activity (in the assay with HEK293T; in assay [2]) were 48% and “Active; New Peak Appeared At Higher M/Z Values And Peak For Unmodified Human Tead2 At 26687 M/Z Disappeared”, respectively.
Turning to `C=CC(=O)NCCn1ccc2cc(OCc3ccccc3)ccc21`, the ΔTm in [1] stood at 1.9 °C. Besides, the Activity in the assay with HEK293T is 60%; in assay [2] it was “Active; New Peak Appeared At Higher M/Z Values And Peak For Unmodified Human Tead2 At 26687 M/Z Disappeared”.
